Measured values taken from patent US8629242B2, “Methods of inhibiting calcineurin with ApoE analogs” (Cognosci, Inc., priority 2007, dated 2014).

Tested on: 175 kdyn contusive spinal cord injury
Test: Contusive spinal cord injury
Format: in vivo, Sprague-Dawley rats
Settings: 1 mg/kg
Method: FIG. 12. COG 112 reduces the size of the lesion in white matter after spinal cord injury by inhibition of microglia activation. Rats received 175 kdyn contusive spinal cord injury and subsequent treatment with saline or COG 112 starting immediately after injury for 1 week. The injured area and spared white matter from the injured spinal cord were evaluated and quantified by luxol fast blue (LFB) staining area (top left panel). Activation of microglia was examined by staining adjacent sections with an ED1 antibody (bottom left panel). […] Scale bar=1000 μm. Similar to MS, spinal cord injury (SCI) is another devastating neurological disorder manifested as massive demyelination in the white matter of the spinal cord and extensive microglial activation surrounding the injured site. To examine the therapeutic effect of ApoE analogs on spinal cord injury, COG 112 (SEQ ID NO: 5) was administered to rats immediately after a contusive spinal cord injury. […] The second dose of COG 112 or vehicle was given i.v. 5 hours later followed by daily i.p. doses for 7 days. The animals were sacrificed on day 7 and the spinal cord spanning the injured site was subjected to histological examination. The injured area and spared white matter of the spinal cord were evaluated by Luxol Fast blue (LFB) staining. Activation of microglia was examined by staining adjacent sections with an antibody to ED1. […] Most impressively, about 50% of spared tissue remained at the epicenter of COG 112-treated animals, while only 15% remained in control animals. […] The microglia surrounding the injured spinal cord were robustly activated as shown by ED1-immunoreactivity 7 days after contusion (FIG. 12, bottom panels).

## Ac-RQIKIWFQNRRMKWKKCLRVRLASHLRKLRKRLL-NH2 [COG 112]
7 days after contusion
  ED1 immunoreactive area in the injured spinal cord (microglia activation): dramatically decreased
Day 7, control animals 15%
  spared tissue remaining at the epicenter: about 50%
Day 7, epicenter to 2.4 mm rostral or caudal, vs saline
  percentage of spared white matter to total spinal cord area: significantly higher
